This experiment has as its target T1, Prk (Synechocystis sp. PCC 6803, UniProt P37101).
T1 sequence (P37101 1-332): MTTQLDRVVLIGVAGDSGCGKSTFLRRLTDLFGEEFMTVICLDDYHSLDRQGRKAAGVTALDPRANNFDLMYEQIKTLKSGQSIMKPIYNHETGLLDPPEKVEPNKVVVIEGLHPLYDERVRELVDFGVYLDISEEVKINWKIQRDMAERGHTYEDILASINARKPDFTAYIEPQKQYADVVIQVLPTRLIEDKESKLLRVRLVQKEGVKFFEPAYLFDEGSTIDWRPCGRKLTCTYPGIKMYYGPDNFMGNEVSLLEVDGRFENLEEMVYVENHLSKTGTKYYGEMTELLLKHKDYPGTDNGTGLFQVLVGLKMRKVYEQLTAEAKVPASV
Description: coupled pyruvate kinase/lactate dehydrogenase assay, NADH at […] nm. The experiment is classed as biochemical.

The record followed here is paper PMC7721636 (Metabolic Engineering Communications, 2020).

`O=C(O)C[C@H](C(=O)O)[C@@H](O)C(=O)O` [isocitrate] showed a Ki of 1450 ± 130 µM.

By Ki is commonly meant the equilibrium dissociation constant of an inhibitor or competing ligand from its target. A low value points to a stronger hold on the target.
